This note sets out measurements from US20040105869A1, “Methods for cultivation of Kabanoanatake secreting and containing active ingredients for prophylactic and therapeutic agents against microbe-related syndromes including HIV” (priority 2002, published 2004).

SMILES strings stand for the structures. Converted amounts (≈) assume the structure as drawn.

Holding throughout (assay type): cell-based
Test [1] concerns H. pylori strain NCTC 11916. Kind of test: Agar plate dilution method, control antibiotic. The following applies: Helicobacter pylori, NCTC11916, agar plate dilution method.
Test [2] concerns H. pylori strain NCTC 11637. Put plainly: Disc diffusion method against H. pylori. The following applies: Helicobacter pylori, NCTC11637, Disk. The protocol: (§1) Each sample was extracted using DMSO at 10 w/v % to make stock solution, further from which ten-fold serial dilution was made by DMSO, to prepare the test solution. H. pylori. strain NCTC 11637 and strain NCTC 11916 were cultured on blood agar which added 5% defibrinated horse blood to Brucella Agar (BBL) at 37° C. for 3 days, under microaerophile surroundings (N2 80%, CO2 15%, O2 5%). The strains were suspended in Brucella broth added 0.5 mg/ml of BSA fraction V (Sigma A-4503) to a concentration of 10^8 cfu/ml, to prepare inoculum organism liquid, and 0.1 ml of the liquid was smeared on BSA agar added the said BSA, after that anti-bacterial activity against H. pylori was determined by Disc method, as described below. Each test solution of 20 μl was made to absorb in a sensitivity disk (8 mm in diameter, Advantech, thin-model), placed on agar smeared with strains, cultured under microaerophile surroundings at 37° C. for 3 to 5 days. After that, growth-inhibitory zone around the disk showing more than 1 mm was regarded as positive.
Background: Agar diffusion results depend on both activity and mobility in agar.

Test [3] has as its system H. pylori strain NCTC 11916. Kind of test: Disc diffusion method against H. pylori. The conditions noted are these: Helicobacter pylori, NCTC11916, Disk. The protocol:
as §1

Test [4] has as its system H. pylori strain NCTC 11637. Put plainly: Agar plate dilution method, control antibiotic. The following applies: Helicobacter pylori, NCTC11637, agar plate dilution method.

As to `CC[C@H]1OC(=O)[C@H](C)[C@@H](O[C@H]2C[C@@](C)(OC)[C@@H](O)[C@H](C)O2)[C@H](C)[C@@H](O[C@@H]2O[C@H](C)C[C@H](N(C)C)[C@H]2O)[C@](C)(O)C[C@@H](C)C(=O)[C@H](C)[C@@H](O)[C@]1(C)O` [Erythromycin], the MIC in test [1] (BSA agar) is 0.03 µg/mL (≈ 0.0409 µM); in test [1] (blood agar), 0.05 µg/mL (≈ 0.0681 µM); in test [2] (BSA agar), 3.1 µg/mL (≈ 4.22 µM); in test [2] (blood agar), 6.3 µg/mL (≈ 8.58 µM); in test [3] (BSA agar), 1.6 µg/mL (≈ 2.18 µM); in test [3] (blood agar), 6.3 µg/mL (≈ 8.58 µM). For the same molecule, the figures for the minimal inhibitory concentration (MIC) in test [4] (BSA agar) and in test [4] (blood agar) were 0.03 µg/mL (≈ 0.0409 µM) and 0.05 µg/mL (≈ 0.0681 µM), respectively.

In general, MIC refers to the smallest concentration in the dilution series that meets the test's criterion for growth inhibition.
